Tests used:
[1] = test system: gut flora (Akkermansia bacteria); test: Example 2: 16S rRNA gene analysis of cecal contents two weeks after the start of intake; assay type: in vivo; conditions: 60 mg/kg body weight per day, compared to High fat diet group
Procedure: 16S rRNA gene analysis was performed on feces (fresh feces) collected eight weeks after the start of intake of the test substance. 16S rRNA gene analysis was performed by the method described in Examples of JP 2018-8911 A. The abundance proportions (abundance ratio) of intestinal bacteria found in the feces were determined by the gene analysis as the abundance ratio of bacteria in the gut flora.
Another test was performed using isoxanthohumol as the test substance, with partial modification in the group structure and dosage design. In this test, the cecal contents were collected two weeks after the start of intake of the test substance, and 16S rRNA gene analysis was performed in the same manner as described above.

[2] = test system: gut flora (Akkermansia bacteria, Firmicutes bacteria, Bacteroidetes bacteria); test: Gut flora improving action in high fat diet mouse model, 16S rRNA gene analysis of feces after eight weeks of intake; assay type: in vivo, Mice (C57BL/6J); conditions: high fat diet mice; for abundance ratio of Firmicutes bacteria to Bacteroidetes bacteria: eight weeks, High fat diet group 7.4, Regular diet group 4.2; for abundance ratio of Firmicutes bacteria to Bacteroidetes bacteria / abundance proportion of Akkermansia bacteria in the gut flora: feces; for change in the abundance ratio of Firmicutes bacteria to Bacteroidetes bacteria, in words: oral intake for eight weeks; for change in the abundance ratio of Firmicutes bacteria to Bacteroidetes bacteria, in words / abundance proportion of Akkermansia bacteria in the gut flora: compared to High fat diet group; for abundance proportion of Akkermansia bacteria in the gut flora: oral intake once a day for eight weeks
Source text: The influence of xanthohumol and isoxanthohumol on the gut flora was examined by the following procedure using a high fat diet mouse model. […] The dosage is an intake (mg) of the test substance per kg body weight per day. In the table, “Regular diet” is control diet “[…]” (Research Diets), and “60 kcal % High-fat diet” is very high-fat diet “D12492” (Research Diets); “Catechins” is a preparation “Polyphenon […]” (product name, Mitsui Morin Co., Ltd.). Catechins were used as a positive control. Xanthohumol and isoxanthohumol were the standard samples (purity of 95% or higher) obtained in Preparation Example 1. [table] Mice (C57BL/6J, male, 7 weeks of age, CLEA Japan, Inc.) were purchased, and they were quarantined and acclimatized for one week. […] The selected animals were divided into groups (n=8 in each group) in the group structure shown in Table 1 by the stratified continuous randomization method based on body weight at the end of the acclimatization period. They were fed with free access to specific basic feed and water. The test substance was orally fed once a day for eight weeks. A dosing solution containing a mixture of the test substance and a solvent was used to administer the test substance. The solvent was a 0.5 wt % sodium carboxymethylcellulose (CMC) aqueous solution. The volume of the dosing solution to be administered to each mouse was 10 mL/kg. The amount of the test substance and the volume of the solution were calculated based on the latest body weight. 16S rRNA gene analysis was performed on feces (fresh feces) collected eight weeks after the start of intake of the test substance. 16S rRNA gene analysis was performed by the method described in Examples of JP 2018-8911 A. The abundance proportions (abundance ratio) of intestinal bacteria found in the feces were determined by the gene analysis as the abundance ratio of bacteria in the gut flora. FIG. 1 is a graph showing the abundance proportion (group average) of bacteria in the gut flora of each group. The abundance proportion shown in FIG. 1 is the ratio (occupancy) of each species of bacteria to the total bacterial count in the feces. Verrucomicrobia in FIG. 1 is a higher rank to which Akkermansia bacteria belong. All the Verrucomicrobia bacteria in this analysis were Akkermansia bacteria. The dosage (mg/kg) of isoxanthohumol (IXN) and xanthohumol (XN) in FIG. 1 is the intake (mg) of the test substance per kg body weight per day. […] The abundance ratio of Firmicutes bacteria to Bacteroidetes bacteria was as follows: 4.2 in Regular diet group; 7.4 in High fat diet group; 1.7 in Catechins group; 3.2 in Xanthohumol (60 mg/kg) group; 6.0 in Isoxanthohumol (60 mg/kg) group (Group No. 5); and 2.4 in Isoxanthohumol (180 mg/kg) group (Group No. 6).

[3] = 100° C.; cited from earlier work

Structure (SMILES)	abundance ratio of Akkermansia bacteria in the gut flora [1]	abundance ratio of Firmicutes bacteria to Bacteroidetes bacteria ([2]; 60 mg/kg/day oral)	abundance ratio of Firmicutes bacteria to Bacteroidetes bacteria ([2]; 180 mg/kg/day oral)	change in the abundance ratio of Firmicutes bacteria to Bacteroidetes bacteria, in words [2]	abundance proportion of Akkermansia bacteria in the gut flora [2]	stability at high temperature [3]
COc1cc(O)c(CC=C(C)C)c2c1C(=O)CC(c1ccc(O)cc1)O2 (stereo not drawn) [Isoxanthohumol]	increase	6.0	2.4	decrease	increase	stable
COc1cc(O)c(CC=C(C)C)c(O)c1C(=O)/C=C/c1ccc(O)cc1 [Xanthohumol]		3.2		decrease	increase	

Reference: patent US20210322369A1, “COMPOSITION FOR IMPROVING INTESTINAL ENVIRONMENT AND METHOD FOR IMPROVING INTESTINAL FLORA” (SUNTORY HOLDINGS LIMITED, priority 2018, published 2021)
